Values quoted from earlier work in patent US11622991B2, “Protocol for treatment of lupus nephritis” (Aurinia Pharmaceuticals Inc., priority 2017, dated 2023).

Test system: lupus nephritis
Settings: standard of care for LN; cited from earlier work

Structure (SMILES) | partial remission, cases
O=P1(N(CCCl)CCCl)NCCCO1 (centres unmarked) [cyclophosphamide] | approximately 50%
COc1c(C)c2c(c(O)c1C/C=C(\C)CCC(=O)OCCN1CCOCC1)C(=O)OC2 [mycophenolate mofetil] | approximately 50%
